Values of other authors, collected in US20200197351A1, “TRIVALENT AND DIVALENT CATIONS AS ADMINISTRABLE AGENTS FOR INCREASED PROCESSIVITY AND IMPROVED FIDELITY OF REVERSE TRANSCRIPTASE IN TELOMERASE AND IN NUCLEIC ACID POLYMERASES” (priority 2018, published 2020).

Conditions: detailed testing in mammals

[Sc] [Scandium]
toxicity: little or no toxicity
